Laboratory results taken from patent US20210045385A1, “PYRIDAZINONE-SUBSTITUTED KETOXIMES AS HERBICIDES” (FMC Corporation, priority 2018, published 2021).

Columns and labels:
Type in all cases: in vivo
[1] = tested on: pigweed (Amaranthus retroflexus); experiment: Test C postemergence, visual plant response rating
Summary of the method: (§1)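 Visual injury on a 0 (no effect) to 100 (complete control) scale versus untreated controls, scored approximately 10 d after treatment under greenhouse conditions. Treatments used surfactant-containing non-phytotoxic solvent formulations, sprayed onto loam–sand soil preemergence or onto one- to two-leaf plants 2–10 cm tall postemergence.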

[2] = tested on: galium (catchweed bedstraw, Galium aparine); experiment: Test C postemergence, visual plant response rating
Summary of the method: as §1

[3] = tested on: barnyardgrass (Echinochloa crus-galli); experiment: Test C postemergence, visual plant response rating
Summary of the method: as §1

[4] = tested on: ragweed (common ragweed, Ambrosia artemisiifolia); experiment: Test C postemergence, visual plant response rating
Summary of the method: as §1

[5] = tested on: wheat (Triticum aestivum); experiment: Test C postemergence, visual plant response rating
Summary of the method: as §1

kochia (Bassia scoparia) [6] = experiment: Test C postemergence, visual plant response rating
Summary of the method: as §1

[7] = tested on: Italian ryegrass (Lolium mutiflorum); experiment: Test C postemergence, visual plant response rating
Summary of the method: as §1

[8] = tested on: blackgrass (Alopecurus myosuroides); experiment: Test C postemergence, visual plant response rating
Summary of the method: as §1

[9] = tested on: foxtail, giant (giant foxtail, Setaria faberi); experiment: Test C postemergence, visual plant response rating
Summary of the method: as §1

corn (Zea mays) = experiment: Test C postemergence, visual plant response rating
Summary of the method: as §1

[10] = tested on: pigweed (Amaranthus retroflexus); experiment: Test C preemergence, visual plant response rating; details: Test C, 0 is no effect, 100 is complete control
Summary of the method: as §1

[11] = tested on: barnyardgrass (Echinochloa crus-galli); experiment: Test C preemergence, visual plant response rating; details: Test C, 0 is no effect, 100 is complete control
Summary of the method: as §1

kochia (Bassia scoparia) [12] = experiment: Test C preemergence, visual plant response rating; details: Test C, 0 is no effect, 100 is complete control
Summary of the method: as §1

[13] = tested on: Italian ryegrass (Lolium mutiflorum); experiment: Test C preemergence, visual plant response rating; details: Test C, 0 is no effect, 100 is complete control
Summary of the method: as §1

[14] = tested on: foxtail, giant (giant foxtail, Setaria faberi); experiment: Test C preemergence, visual plant response rating; details: Test C, 0 is no effect, 100 is complete control
Summary of the method: as §1

[15] = tested on: duck salad (Heteranthera limosa); experiment: Test D flooded paddy test, visual plant response rating; details: 250 g ai/ha, scale 0 to 100 (0 no effect, 100 complete control), 13 to 15 d
Summary of the method: (§2)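 Visual injury scores, 0 (no effect) to 100 (complete control), were assigned after 13 to 15 d in the greenhouse by comparison with controls. Test compounds had been added to paddy water covering soil by 3 cm at the 2-leaf stage.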

[16] = tested on: sedge umbrella (small-flower umbrella sedge, Cyperus difformis); experiment: as above; details: 250 g ai/ha, scale 0 to 100 (0 no effect, 100 complete control), 13 to 15 d
Summary of the method: as §2

[17] = tested on: barnyardgrass (Echinochloa crus-galli); experiment: as above; details: 250 g ai/ha, scale 0 to 100 (0 no effect, 100 complete control), 13 to 15 d
Summary of the method: as §2

rice (Oryza sativa) = experiment: as above; details: 250 g ai/ha, scale 0 to 100 (0 no effect, 100 complete control), 13 to 15 d
Summary of the method: as §2

[18] = Test C, postemergence, 125 g ai/ha

Row | Compound | Pigweed plant response rating (0 to 100 scale) ([1]; Postemergence, 31 g ai/ha) | Pigweed plant response rating (0 to 100 scale) [1, 18] | Galium plant response rating (0 to 100 scale) ([2]; Postemergence, 31 g ai/ha) | Galium plant response rating (0 to 100 scale) [2, 18] | Barnyardgrass plant response rating (0 to 100 scale) ([3]; Postemergence, 31 g ai/ha) | Barnyardgrass plant response rating (0 to 100 scale) [3, 18] | Ragweed plant response rating (0 to 100 scale) ([4]; Postemergence, 31 g ai/ha) | Ragweed plant response rating (0 to 100 scale) [4, 18] | Wheat plant response rating (0 to 100 scale) ([5]; Postemergence, 31 g ai/ha) | Wheat plant response rating (0 to 100 scale) [5, 18] | Kochia plant response rating (0 to 100 scale) (kochia (Bassia scoparia) [6]; Postemergence, 31 g ai/ha) | Kochia plant response rating (0 to 100 scale) (kochia (Bassia scoparia) [6]; [18]) | Ryegrass, Italian plant response rating (0 to 100 scale) ([7]; Postemergence, 31 g ai/ha) | Ryegrass, Italian plant response rating (0 to 100 scale) [7, 18] | Blackgrass plant response rating (0 to 100 scale) ([8]; Postemergence, 31 g ai/ha) | Blackgrass plant response rating (0 to 100 scale) [8, 18] | Foxtail, Giant plant response rating (0 to 100 scale) ([9]; Postemergence, 31 g ai/ha) | Foxtail, Giant plant response rating (0 to 100 scale) [9, 18] | Corn plant response rating (0 to 100 scale) (corn (Zea mays); Postemergence, 31 g ai/ha) | Corn plant response rating (0 to 100 scale) (corn (Zea mays); [18]) | further results
1 | CC(C)O/N=C(/c1c(O)c(Cl)nn(C)c1=O)c1cc(Br)cc2ccccc12 [Compound 232] | 70 | 90 | 80 | 100 | 40 | 90 | 100 | 100 | 0 | 0 | 20 | 50 | 0 | 0 | 20 | 50 | 60 | 80 | 0 | 10 | Pigweed plant response rating (0 to 100 scale) ([10]; 31 g ai/ha): 70; Pigweed plant response rating (0 to 100 scale) ([10]; 125 g ai/ha): 90; Barnyardgrass plant response rating (0 to 100 scale) ([11]; 31 g ai/ha): 60; Barnyardgrass plant response rating (0 to 100 scale) ([11]; 125 g ai/ha): 100; Kochia plant response rating (0 to 100 scale) (kochia (Bassia scoparia) [12]; 31 g ai/ha): 0; Kochia plant response rating (0 to 100 scale) (kochia (Bassia scoparia) [12]; 125 g ai/ha): 10; Ryegrass, Italian plant response rating (0 to 100 scale) ([13]; 31 g ai/ha): 0; Ryegrass, Italian plant response rating (0 to 100 scale) ([13]; 125 g ai/ha): 0; Foxtail, Giant plant response rating (0 to 100 scale) ([14]; 31 g ai/ha): 70; Foxtail, Giant plant response rating (0 to 100 scale) ([14]; 125 g ai/ha): 100; Plant response rating, Ducksalad (Flood) [15]: 30; Plant response rating, Sedge, Umbrella (Flood) [16]: 95; Plant response rating, Barnyardgrass (Flood) [17]: 30; Plant response rating, Rice (Flood) (rice (Oryza sativa)): 0
2 | CC(C)O/N=C(\c1c(O)c(Cl)nn(C)c1=O)c1cc(Br)cc2ccccc12 [Compound 233] | 60 | 90 | 60 | 90 | 40 | 60 | 100 | 100 | 0 | 0 | 0 | 10 | 0 | 0 | 0 | 30 | 30 | 80 | 0 | 10 | Pigweed plant response rating (0 to 100 scale) ([10]; 31 g ai/ha): 90; Pigweed plant response rating (0 to 100 scale) ([10]; 125 g ai/ha): 90; Barnyardgrass plant response rating (0 to 100 scale) ([11]; 31 g ai/ha): 90; Barnyardgrass plant response rating (0 to 100 scale) ([11]; 125 g ai/ha): 100; Kochia plant response rating (0 to 100 scale) (kochia (Bassia scoparia) [12]; 31 g ai/ha): 0; Kochia plant response rating (0 to 100 scale) (kochia (Bassia scoparia) [12]; 125 g ai/ha): 0; Ryegrass, Italian plant response rating (0 to 100 scale) ([13]; 31 g ai/ha): 0; Ryegrass, Italian plant response rating (0 to 100 scale) ([13]; 125 g ai/ha): 0; Foxtail, Giant plant response rating (0 to 100 scale) ([14]; 31 g ai/ha): 60; Foxtail, Giant plant response rating (0 to 100 scale) ([14]; 125 g ai/ha): 100; Plant response rating, Ducksalad (Flood) [15]: 0; Plant response rating, Sedge, Umbrella (Flood) [16]: 85; Plant response rating, Barnyardgrass (Flood) [17]: 30; Plant response rating, Rice (Flood) (rice (Oryza sativa)): 0
3 | CCO/N=C(\c1c(O)c(Cl)nn(C)c1=O)c1cc(Br)cc2ccccc12 [Compound 235] | 50 | 90 | 90 | 90 | 60 | 90 | 100 | 100 | 0 | 0 | 50 | 60 | 0 | 0 | 20 | 20 | 40 | 80 | 0 | 10 | Pigweed plant response rating (0 to 100 scale) ([10]; 31 g ai/ha): 100; Pigweed plant response rating (0 to 100 scale) ([10]; 125 g ai/ha): 90; Barnyardgrass plant response rating (0 to 100 scale) ([11]; 31 g ai/ha): 90; Barnyardgrass plant response rating (0 to 100 scale) ([11]; 125 g ai/ha): 100; Kochia plant response rating (0 to 100 scale) (kochia (Bassia scoparia) [12]; 31 g ai/ha): 0; Kochia plant response rating (0 to 100 scale) (kochia (Bassia scoparia) [12]; 125 g ai/ha): 70; Ryegrass, Italian plant response rating (0 to 100 scale) ([13]; 31 g ai/ha): 0; Ryegrass, Italian plant response rating (0 to 100 scale) ([13]; 125 g ai/ha): 0; Foxtail, Giant plant response rating (0 to 100 scale) ([14]; 31 g ai/ha): 30; Foxtail, Giant plant response rating (0 to 100 scale) ([14]; 125 g ai/ha): 90; Plant response rating, Ducksalad (Flood) [15]: 75; Plant response rating, Sedge, Umbrella (Flood) [16]: 90; Plant response rating, Barnyardgrass (Flood) [17]: 60; Plant response rating, Rice (Flood) (rice (Oryza sativa)): 0
4 | CCO/N=C(/c1c(O)c(Cl)nn(C)c1=O)c1cc(Br)cc2ccccc12 [Compound 236] | 20 | 60 | 90 | 100 | 70 | 90 | 100 | 100 | 0 | 0 | 30 | 50 | 0 | 20 | 0 | 30 | 60 | 90 | 20 | 30 | Pigweed plant response rating (0 to 100 scale) ([10]; 31 g ai/ha): 10; Pigweed plant response rating (0 to 100 scale) ([10]; 125 g ai/ha): 70; Barnyardgrass plant response rating (0 to 100 scale) ([11]; 31 g ai/ha): 90; Barnyardgrass plant response rating (0 to 100 scale) ([11]; 125 g ai/ha): 90; Kochia plant response rating (0 to 100 scale) (kochia (Bassia scoparia) [12]; 31 g ai/ha): 0; Kochia plant response rating (0 to 100 scale) (kochia (Bassia scoparia) [12]; 125 g ai/ha): 40; Ryegrass, Italian plant response rating (0 to 100 scale) ([13]; 31 g ai/ha): 0; Ryegrass, Italian plant response rating (0 to 100 scale) ([13]; 125 g ai/ha): 20; Foxtail, Giant plant response rating (0 to 100 scale) ([14]; 31 g ai/ha): 80; Foxtail, Giant plant response rating (0 to 100 scale) ([14]; 125 g ai/ha): 100; Plant response rating, Ducksalad (Flood) [15]: 70; Plant response rating, Sedge, Umbrella (Flood) [16]: 85; Plant response rating, Barnyardgrass (Flood) [17]: 35; Plant response rating, Rice (Flood) (rice (Oryza sativa)): 0
5 | CO/N=C(\c1c(O)c(Cl)nn(C)c1=O)c1cc(Br)cc2ccccc12 [Compound 250] | 50 | 70 | 90 | 100 | 50 | 80 | 100 | 100 | 0 | 0 | 40 | 60 | 0 | 0 | 10 | 30 | 20 | 80 | 0 | 10 | Pigweed plant response rating (0 to 100 scale) ([10]; 31 g ai/ha): 10; Pigweed plant response rating (0 to 100 scale) ([10]; 125 g ai/ha): 70; Barnyardgrass plant response rating (0 to 100 scale) ([11]; 31 g ai/ha): 70; Barnyardgrass plant response rating (0 to 100 scale) ([11]; 125 g ai/ha): 80; Kochia plant response rating (0 to 100 scale) (kochia (Bassia scoparia) [12]; 31 g ai/ha): 0; Kochia plant response rating (0 to 100 scale) (kochia (Bassia scoparia) [12]; 125 g ai/ha): 80; Ryegrass, Italian plant response rating (0 to 100 scale) ([13]; 31 g ai/ha): 0; Ryegrass, Italian plant response rating (0 to 100 scale) ([13]; 125 g ai/ha): 0; Foxtail, Giant plant response rating (0 to 100 scale) ([14]; 31 g ai/ha): 40; Foxtail, Giant plant response rating (0 to 100 scale) ([14]; 125 g ai/ha): 80; Plant response rating, Ducksalad (Flood) [15]: 85; Plant response rating, Sedge, Umbrella (Flood) [16]: 70; Plant response rating, Barnyardgrass (Flood) [17]: 25; Plant response rating, Rice (Flood) (rice (Oryza sativa)): 10
